How the values were obtained:
rat [1] = details: Combined chronic toxicity/carcinogenicity, fischer, Oral, Feed, dose end: 105 week, group: systemic
mouse [2] = details: Carcinogenicity, other, Oral, Feed, dose end: 2 year, group: systemic
rat [3] = details: Combined chronic toxicity/carcinogenicity; fischer; Oral; Feed; dose end: 2 year; group: systemic; systemic / in life observation / body weight / body weight + systemic / in life observation / body weight / body weight gain
mouse [4] = details: Subchronic oral toxicity in rodents, b6c3f1, Feed, dose end: 13 week, group: systemic, systemic / in life observation / body weight / body weight gain
rat [5] = details: Multigenerational reproductive toxicity study, fischer, Oral, Feed, dose end: 3 generation
rabbit = details: Prenatal developmental toxicity study, new zealand white, Oral, Gavage/Intubation, dose end: 28 GD
rat [6] = details: Prenatal developmental toxicity study, fischer, Oral, Gavage/Intubation, dose end: 15 GD
mouse [7] = details: Carcinogenicity; b6c3f1; Oral; Feed; dose end: 2 year; group: systemic; systemic / in life observation / body weight / body weight
rat [8] = details: Subchronic oral toxicity in rodents, fischer, Feed, dose end: 13 week, group: systemic
rat [9] = details: Subchronic oral toxicity in rodents, fischer, Gavage/Intubation, dose end: 13 week, group: systemic
mouse [10] = details: Subchronic oral toxicity in rodents, b6c3f1, Gavage/Intubation, dose end: 13 week, group: systemic
rat [11] = details: Carcinogenicity, fischer, Oral, Gavage/Intubation, dose end: 103 week, group: systemic
mouse [12] = details: Carcinogenicity; b6c3f1; Oral; Feed; dose end: 78 week; group: systemic; systemic / in life observation / mortality / mortality
mouse [13] = details: Multigenerational reproductive toxicity study, other, Oral, Feed, dose end: 5 generation
mouse [14] = details: Subchronic oral toxicity in rodents, b6c3f1, Feed, dose end: 6 week, group: systemic
rat [15] = details: Subchronic oral toxicity in rodents, other, Feed, dose end: 6 week, group: systemic, systemic / in life observation / body weight / body weight
dog = details: Multigenerational reproductive toxicity study; beagle; Oral; Feed; dose end: 3 generation; group: reproductive; reproductive / reproductive performance / estrous cycle / abnormal
rat [16] = details: Multigenerational reproductive toxicity study, sprague dawley, Oral, Feed, dose end: 2 generation
rat [17] = details: Multigenerational reproductive toxicity study, sprague dawley, Oral, Feed, dose end: 2 generation; remark: listed apart in the source
rat [18] = details: Carcinogenicity, other, Oral, Feed, dose end: 78 week, group: systemic
[19] = systemic / in life observation / body weight / body weight + systemic / organ weight / kidney / relative to body weight + systemic / …
[20] = systemic / clinical chemistry / alkaline phosphatase (alp/alk) / alkaline phosphatase (alp/alk) + systemic / clinical chemistry / chloride…
[21] = systemic / clinical chemistry / chloride / chloride + systemic / clinical chemistry / potassium / potassium + systemic / clinical chemistry…
[22] = group: offspring, systemic / in life observation / body weight / offspring (pup) weight
[23] = group: offspring, systemic / in life observation / body weight / offspring (pup) weight + systemic / organ weight / kidney / absolute
[24] = group: parental, systemic / in life observation / body weight / body weight + systemic / pathology microscopic / kidney / casts + systemic / pathology …
[25] = group: developmental, systemic / in life observation / body weight / fetal weight
[26] = group: maternal, systemic / in life observation / body weight / body weight gain + systemic / in life observation / clinical signs / alopecia + systemic / in…
[27] = group: developmental, developmental / developmental malformation / general / crown-rump length + developmental / offspring survival late / viability index / …
[28] = group: maternal, systemic / in life observation / clinical signs / blood around eyes and nose + systemic / in life observation / clinical signs / emaciation…
[29] = systemic / in life observation / body weight / body weight gain
[30] = systemic / clinical chemistry / alkaline phosphatase (alp/alk) / alkaline phosphatase (alp/alk) + systemic / clinical chemistry / gamma …
[31] = systemic / organ weight / spleen / absolute + systemic / organ weight / spleen / relative to body weight
[32] = systemic / in life observation / body weight / body weight + systemic / in life observation / mortality / mortality + systemic / organ …
[33] = systemic / organ weight / heart / absolute + systemic / organ weight / heart / relative to body weight
[34] = systemic / in life observation / body weight / body weight
[35] = systemic / in life observation / body weight / body weight + systemic / pathology microscopic / liver / neoplastic nodule + systemic / in …
[36] = group: offspring, systemic / pathology microscopic / blood / leukemia + systemic / pathology microscopic / blood vessel / [other] + systemic / pathology …
[37] = group: parental, systemic / pathology microscopic / blood vessel / [other] + systemic / pathology microscopic / lung / carcinoma + systemic / hematology / …
[38] = systemic / in life observation / body weight / body weight gain + systemic / in life observation / mortality / mortality
[39] = group: offspring, systemic / in life observation / clinical signs / [other]
[40] = group: parental, systemic / organ weight / liver / relative to body weight
[41] = group: offspring, developmental / offspring survival late / viability index / viability index + developmental / developmental landmark / preputial separation…
[42] = group: parental, systemic / organ weight / adrenal gland / relative to body weight + systemic / organ weight / kidney / relative to body weight + systemic / …
[43] = systemic / in life observation / clinical signs / abdominogenital staining + systemic / in life observation / clinical signs / hunched …

## c1ccc(-c2ccccc2)cc1 [Biphenyl]
Rat [1]; [19]
  LOAEL: > 225 mg/kg/day
  NEL: 25 mg/kg/day
  NOAEL: ≥ 225 mg/kg/day
Rat [1]; systemic / organ weight / kidney / relative to body weight
  LEL: 75 mg/kg/day
Mouse [2]; [20]
  LOAEL: > 1050 mg/kg/day
  NOAEL: ≥ 1050 mg/kg/day
Mouse [2]; [21]
  LEL: 97 mg/kg/day
  NEL: < 97 mg/kg/day

## O=C1CCCCCN1 [Caprolactam]
Rat [3]
  LEL: 188 mg/kg/day
  LOAEL: 188 mg/kg/day
  NEL: < 188 mg/kg/day
  NOAEL: < 188 mg/kg/day
Mouse [4]
  LEL: 750 mg/kg/day
  LOAEL: 750 mg/kg/day
  NEL: < 750 mg/kg/day
  NOAEL: < 750 mg/kg/day
Rat [5]; [22]
  LEL: 250 mg/kg/day
  NEL: 50 mg/kg/day
Rat [5]; [23]
  LOAEL: > 500 mg/kg/day
  NOAEL: ≥ 500 mg/kg/day
Rat [5]; group: parental, systemic / in life observation / body weight / body weight
  NEL: 250 mg/kg/day
Rat [5]; [24]
  LEL: 500 mg/kg/day
  LOAEL: > 500 mg/kg/day
  NOAEL: ≥ 500 mg/kg/day
rabbit; [25]
  LEL: 150 mg/kg/day
  LOAEL: > 250 mg/kg/day
  NEL: 50 mg/kg/day
  NOAEL: ≥ 250 mg/kg/day
rabbit; group: maternal, systemic / in life observation / body weight / body weight gain
  LEL: 150 mg/kg/day
rabbit; [26]
  LOAEL: > 250 mg/kg/day
  NEL: 50 mg/kg/day
  NOAEL: ≥ 250 mg/kg/day
Rat [6]; [27]
  LEL: 1000 mg/kg/day
  LOAEL: > 1000 mg/kg/day
  NEL: 500 mg/kg/day
  NOAEL: ≥ 1000 mg/kg/day
Rat [6]; [28]
  LEL: 100 mg/kg/day
  LOAEL: > 1000 mg/kg/day
  NEL: < 100 mg/kg/day
  NOAEL: ≥ 1000 mg/kg/day
Mouse [7]
  LEL: 1120 mg/kg/day
  LOAEL: 1120 mg/kg/day
  NEL: < 1120 mg/kg/day
  NOAEL: < 1120 mg/kg/day
Rat [8]; [29]
  LEL: 31 mg/kg/day
  LOAEL: 125 mg/kg/day
  NEL: < 31 mg/kg/day
Rat [8]; systemic / in life observation / body weight / body weight gain + systemic / in life observation / food consumption / food consumption
  NOAEL: 63 mg/kg/day

## Clc1ccccc1 [Chlorobenzene]
Rat [9]; [30]
  LOAEL: > 750 mg/kg/day
  NOAEL: ≥ 750 mg/kg/day
Rat [9]; [31]
  LEL: 60 mg/kg/day
  NEL: < 60 mg/kg/day
Mouse [10]; [32]
  LOAEL: > 750 mg/kg/day
  NOAEL: ≥ 750 mg/kg/day
Mouse [10]; [33]
  LEL: 60 mg/kg/day
  NEL: < 60 mg/kg/day
Rat [11]; [34]
  LEL: 60 mg/kg/day
  NEL: < 60 mg/kg/day
Rat [11]; [35]
  LOAEL: > 120 mg/kg/day
  NOAEL: ≥ 120 mg/kg/day

## Clc1ccc(C(c2ccc(Cl)cc2)C(Cl)(Cl)Cl)cc1 [p,p'-DDT]
Mouse [12]
  LEL: 26.2 mg/kg/day
  LOAEL: > 26.2 mg/kg/day
  NEL: 13.1 mg/kg/day
  NOAEL: ≥ 26.2 mg/kg/day
Mouse [13]; [36]
  LEL: 0.55 mg/kg/day
  LOAEL: > 0.55 mg/kg/day
  NEL: < 0.55 mg/kg/day
  NOAEL: ≥ 0.55 mg/kg/day
Mouse [13]; [37]
  LEL: 0.55 mg/kg/day
  LOAEL: > 0.55 mg/kg/day
  NEL: < 0.55 mg/kg/day
  NOAEL: ≥ 0.55 mg/kg/day
Mouse [14]; [29]
  LEL: 2.7 mg/kg/day
  NEL: < 2.7 mg/kg/day
Mouse [14]; [38]
  LOAEL: > 26.7 mg/kg/day
  NOAEL: ≥ 26.7 mg/kg/day
Rat [15]
  LEL: 28.1 mg/kg/day
  LOAEL: 28.1 mg/kg/day
  NEL: 15.8 mg/kg/day
  NOAEL: 15.8 mg/kg/day
dog
  LEL: 1 mg/kg/day
  LOAEL: > 10 mg/kg/day
  NEL: < 1 mg/kg/day
  NOAEL: ≥ 10 mg/kg/day
Rat [16]; [39]
  LEL: 10 mg/kg/day
  LOAEL: > 10 mg/kg/day
  NEL: 1 mg/kg/day
  NOAEL: ≥ 10 mg/kg/day
Rat [16]; [40]
  LEL: 10 mg/kg/day
  LOAEL: > 10 mg/kg/day
  NEL: 1 mg/kg/day
  NOAEL: ≥ 10 mg/kg/day
Rat [17]; [41]
  LEL: 25 mg/kg/day
  LOAEL: > 25 mg/kg/day
  NEL: 3.44 mg/kg/day
  NOAEL: ≥ 25 mg/kg/day
Rat [17]; [42]
  LOAEL: > 25 mg/kg/day
  NEL: 0.343 mg/kg/day
  NOAEL: ≥ 25 mg/kg/day
Rat [17]; group: parental, systemic / organ weight / liver / absolute + systemic / organ weight / liver / relative to body weight + systemic / pathology microscopic / …
  LEL: 3.44 mg/kg/day
Rat [18]; [34]
  LOAEL: 21 mg/kg/day
Rat [18]; systemic / in life observation / body weight / body weight + systemic / in life observation / clinical signs / abdominogenital staining + …
  NOAEL: 10.5 mg/kg/day
Rat [18]; [43]
  LEL: 10.5 mg/kg/day
  NEL: < 10.5 mg/kg/day

Source: EPA's ToxRefDB 2
